Test system: 327498-153-R-J2-PDC complex spheroid growth, % test/control
Test: Anticancer human tumor 327498-153-R-J2-PDC patient-derived uterine carcinosarcoma cell line growth inhibition [Asc]
Details: for IC50: curve of first compound; for viability, T/C: stronger effect = lower value; active = viability on the fitted dose curve at most 10% of control; inactive = the rest
In short: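 Tumor cells were grown as complex spheroids with human endothelial cells (HUVEC) and human mesenchymal stem cells as stroma. Agents were tested alone and in combination, in half-log steps down from the clinical Cmax, or from 10 microM where Cmax was unknown.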
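Note: spheroids exposed to compound for 7 days after 3 days of growth.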
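Throughout, for viability, T/C: 100% = DMSO vehicle control wells.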

Cc1nc(N2CCC3(CC2)COC(C)C3N)c(CO)nc1Sc1ccnc(N)c1Cl (stereo not given) + Cc1c(S(C)(=O)=O)c(-c2cc(F)cc(N3CCN(c4ccc(NS(=O)(=O)c5ccc(NC(CCN6CCC(C(=O)OCCCP(=O)(O)O)CC6)CSc6ccccc6)c(S(=O)(=O)C(F)(F)F)c5)cc4)CC3)c2)c(-c2ccc(Cl)cc2)n1C(C)C
inactive: viability, T/C (second compound 0.1 µM, first compound 0.00949 µM) 98.7% | viability, T/C (second compound 0.1 µM, first compound 0.03 µM) 90.4% | viability, T/C (second compound 0.1 µM, first compound 0.0949 µM) 83.8% | viability, T/C (second compound 0.1 µM, first compound 0.3 µM) 65.8% | viability, T/C (second compound 0.1 µM, first compound 0.949 µM) 54.8% | viability, T/C (second compound 0.1 µM, first compound 3 µM) 44.5% | viability, T/C (second compound 0.316 µM, first compound 0.00949 µM) 94.9% | viability, T/C (second compound 0.316 µM, first compound 0.03 µM) 94.2% | viability, T/C (second compound 0.316 µM, first compound 0.0949 µM) 70.2% | viability, T/C (second compound 0.316 µM, first compound 0.3 µM) 59.5% | viability, T/C (second compound 0.316 µM, first compound 0.949 µM) 46.6% | viability, T/C (second compound 0.316 µM, first compound 3 µM) 38.9% | viability, T/C (second compound 1 µM, first compound 0.00949 µM) 95.3% | viability, T/C (second compound 1 µM, first compound 0.03 µM) 93.6% | viability, T/C (second compound 1 µM, first compound 0.0949 µM) 68.6% | viability, T/C (second compound 1 µM, first compound 0.3 µM) 58.4% | viability, T/C (second compound 1 µM, first compound 0.949 µM) 47.1% | viability, T/C (second compound 1 µM, first compound 3 µM) 38.3% | viability, T/C (second compound 3.16 µM, first compound 0.00949 µM) 98% | viability, T/C (second compound 3.16 µM, first compound 0.03 µM) 92% | viability, T/C (second compound 3.16 µM, first compound 0.0949 µM) 65.1% | viability, T/C (second compound 3.16 µM, first compound 0.3 µM) 64.6% | viability, T/C (second compound 3.16 µM, first compound 0.949 µM) 47% | viability, T/C (second compound 3.16 µM, first compound 3 µM) 42.5% | viability, T/C (second compound 10 µM, first compound 0.00949 µM) 179% | viability, T/C (second compound 10 µM, first compound 0.03 µM) 178% | viability, T/C (second compound 10 µM, first compound 0.0949 µM) 145% | viability, T/C (second compound 10 µM, first compound 0.3 µM) 142% | viability, T/C (second compound 10 µM, first compound 0.949 µM) 138% | viability, T/C (second compound 10 µM, first compound 3 µM) 117%
> 3000 nM: IC50 (second compound 10 µM)
1560 nM: IC50 (second compound 0.1 µM)
594 nM: IC50 (second compound 1 µM)
625 nM: IC50 (second compound 0.316 µM)
829 nM: IC50 (second compound 3.16 µM)

— PubChem BioAssay AID1963424 (Molecular Pharmacology Branch, DTP, NCI, 2024)
